Results from US10195156B2, “Compounds and compositions for intracellular delivery of agents” (ModernaTX, Inc., priority 2015, dated 2019).

Legend:
[1] = pKa of nanoparticle compositions; type: physicochemical; details: Table 20-1
[2] = Encapsulation efficiency of RNA (QUANT-IT RIBOGREEN RNA assay); type: physicochemical
Procedure, shortened: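 Nanoparticle samples diluted to ~5 μg/mL RNA in TE buffer (pH 7.5), incubated with or without 2% Triton X-100 solution at 37 °C for 15 min, then RiboGreen added. Fluorescence read at ~480/520 nm, blank-subtracted; free RNA % = intact over Triton-disrupted signal.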

[3] = system: modified luciferase (Luc) expression; experiment: Expression upon intramuscular administration of Luc mRNA and H10 mRNA formulations; type: in vivo; details: 6 hours after intramuscular administration
Method: Sample formulations including both modified luciferase (Luc) mRNA and H10 mRNA were prepared and administered intramuscularly at day 1 and day 21 and the resulting expression and immunogenicity were evaluated simultaneously. Formulations including compounds according to formula (20-I) were prepared and administered at doses of 0.001 and 0.01 mpk (e.g., doses of 0.0005 mpk of a formulation including Luc mRNA and a formulation including H10 mRNA or doses of 0.005 mpk of a formulation including Luc mRNA and a formulation including H10 mRNA). As shown in Table 20-4, the total flux was higher upon administration of the second dose for each composition and at each dose level. Total flux was higher for the higher dose level.

[4] = Particle size and polydispersity index of nanoparticle compositions (Zetasizer Nano ZS); type: physicochemical
Procedure, shortened: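 Particle size and PDI were measured on a Zetasizer Nano ZS with the nanoparticle compositions dispersed in 1×PBS.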

[5] = system: modified luciferase expression; experiment: Expression of Luc in different organs (liver, lung, spleen, femur) 6 hours after intravenous administration; type: in vivo; details: Table 20-3, mice, i.v., 0.5 mpk
Method: The efficacy of the nanoparticle compositions presented in Tables 1, 1a, 17-1, 19-1, 20-1 and 21-1 was further evaluated by measuring the expression of modified luciferase in the liver, lung, spleen, and femur upon administration of a given composition. Formulations were administered intravenously to mice (n=3) at a dosage of 0.5 mpk and bioluminescence measured after 6 hours. The standard MC3 formulation and a PBS control were also tested.

IL-6 = experiment: Cytokine production induced by sample formulations: IL-6; type: in vivo; details: Table 20-4, formula (20-I); mice, i.v., 0.5 mpk, 6 hours; in pg/mL (unit assumed)
Procedure, shortened: (§1)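 Mice received nanoparticle formulations intravenously at 0.5 mpk, with standard MC3 formulation and PBS as controls. Cytokine concentrations were measured 6 hours after dosing.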

[6] = system: luciferase (Luc) mRNA expression; experiment: Expression of Luc induced by sample formulations, whole-body bioluminescence after intravenous administration; type: in vivo; details: mice, i.v., 0.5 mg/kg; for Total Flux 3 hours / Total Flux 6 hours / Total Flux 24 hours: Table 20-2
Procedure, shortened: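 Mice (n=6) dosed intravenously with Luc mRNA nanoparticle formulations at 0.5 mg/kg. Whole-body bioluminescence measured at 3, 6 and 24 h. Standard MC3 formulation and PBS control run alongside.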

IP-10 = experiment: Cytokine production induced by sample formulations: IP-10; type: in vivo; details: Table 20-4, formula (20-I); mice, i.v., 0.5 mpk, 6 hours; in pg/mL (unit assumed)
Procedure, shortened: as §1

hEPO mRNA expression = experiment: Expression of hEPO in CD-1 mice; type: in vivo; details: Table 7e; hEPO expression, CD-1 mice, 0.5 mpk
Source text: FIG. 12 is a set of graphs illustrating hEPO expression levels in CD-1 mice dosed with compounds of the disclosure, compared to MC3. PBS is used as control. […] In graphs A-C numbers 1-14 refer to compositions containing the following: 1: Compound 73, 2: Compound 80, 3: Compound 70; 4: Compound 81; 5: Compound 69; 6: Compound 82; 7: Compound 83; 8: Compound 62; 9: Compound 84; 10: Compound 85; 11: Compound 86; 12: Compound 87; 13: MC3; 14: PBS.
FIG. 13 is a graph showing hEPO levels (pg/mL) in CD-1 mice up to ˜25 h after administration of a nanoparticle composition containing compounds of the disclosure, compared to a composition containing MC3. Numbers 1-13 refer to compositions containing the following: 1: Compound 73, 2: Compound 80, 3: Compound 70; 4: Compound 81; 5: Compound 69; 6: Compound 82; 7: Compound 83; 8: Compound 62; 9: Compound 84; 10: Compound 85; 11: Compound 86; 12: Compound 87; 13: MC3. […]

[7] = Table 20-1, * formulated with DOPE
[8] = Table 20-1, rows without footnote mark

Row | SMILES | EE (%) ([2]; Table 1b) | AUC (p/s*h) CD-1 mice 0.5 mpk (hEPO mRNA expression) [p/s*h] | PDI ([4]; Table 1b) | Size (nm) ([4]; Table 1b) | also measured
1 | CCCCCCCCCCCCN(CCCCCCCCCCCC)CCN(CCCCCCCCCCCC)CC(=O)O [Compound 20-1, N-(2-(Didodecylamino)ethyl)-N-dodecylglycine] | – | – | – | – | pKa ([1]; * formulated with DOPE): 4.48; EE (%) [2, 7]: 90.7%; Total flux (p/s) 0.001 mpk Dose 1 ([3]; 0.001 mpk): 3.50E+05 p/s; Total flux (p/s) 0.001 mpk Dose 2 ([3]; 0.001 mpk, Dose 2): 1.99E+06 p/s; Total flux (p/s) 0.01 mpk Dose 1 ([3]; 0.01 mpk): 3.16E+06 p/s; Total flux (p/s) 0.01 mpk Dose 2 ([3]; 0.01 mpk, Dose 2): 1.04E+07 p/s; PDI [4, 7]: 0.078; Size (nm) [4, 7]: 87.8 nm; Total Flux Liver [5]: 3.19E+05; Total Flux Lung [5]: 3.79E+04; Total Flux Spleen [5]: 1.70E+05; IL-6 (IL-6): 62.4; Total Flux 3 hours [6]: 1.44E+06; Total Flux 6 hours [6]: 8.30E+05; Total Flux 24 hours ([6]; 24 hours): 4.53E+05; total flux after 24 hours, rank within the named table (in words) ([6]; 24 hours): lowest; IP-10 (IP-10): 2065.8
2 | CCCCCCCCCCCCN(CCO)CCN(CCCCCC(=O)OCCCCC)CCCCCC(=O)OCCCCC [Compound 20-4, Dipentyl 6,6′-((2-(dodecyl(2-hydroxyethyl)amino)ethyl)azanediyl)dihexanoate] | – | – | – | – | pKa ([1]; rows without footnote mark): 6.86; EE (%) [2, 8]: 91.3%; Total flux (p/s) 0.001 mpk Dose 1 ([3]; 0.001 mpk): 1.04E+06 p/s; Total flux (p/s) 0.01 mpk Dose 1 ([3]; 0.01 mpk): 9.46E+06 p/s; PDI [4, 8]: 0.160; Size (nm) [4, 8]: 82.1 nm; Total Flux Femur ([5]; femur): 2.09E+04; Total Flux Liver [5]: 2.93E+05; Total Flux Lung [5]: 1.11E+04; Total Flux Spleen [5]: 4.51E+04; IL-6 (IL-6): 169.3; Total Flux 3 hours [6]: 3.01E+06; Total Flux 6 hours [6]: 1.75E+06; Total Flux 24 hours ([6]; 24 hours): 6.82E+08; IP-10 (IP-10): 270.5
3 | CCCCCCCCCN(CCCC(=O)OCCCCC)CCC(=O)N1CCN(C(=O)CCN(CCCCCCCCC)CCN(CCCCCCCCC)CCCCCCCCC)CC1 [Compound 62, Pentyl 4-((3-(4-(3-((2-(dinonylamino)ethyl)(nonyl)amino)propanoyl)piperazin-1-yl)-3-oxopropyl)(nonyl)amino)butanoate] | 97.73 | 3.46E+7 | 0.18 | 61.7 | –
4 | CCCCCCCCCN(CCCCCCCCC)CCC1CCN(C(=O)CN(CCCCCCCCC)CCN(CCCCCCCCC)CCCCCCCCC)C1 (centres unmarked) [Compound 69, 2-((2-(Dinonylamino)ethyl)(nonyl)amino)-1-(3-(2-(dinonylamino)ethyl)pyrrolidin-1-yl)ethan-1-one] | 99.31 | 2.33E+8 | 0.24 | 74.4 | –
5 | CCCCCCCCCN(CCCCCCCCC)CCN(CCCCCCCCC)CC(=O)N1CCC(CN(CCCCCCCCC)CCCCCCCCC)C1 (centres unmarked) [Compound 70, 2-((2-(Dinonylamino)ethyl)(nonyl)amino)-1-(3-((dinonylamino)methyl)pyrrolidin-1-yl)ethan-1-one] | 99.14 | 6.34E+7 | 0.24 | 79.8 | –
6 | CCCCCCCCCN(CCCCCCCCC)CCC1CCCN(C(=O)CN(CCCCCCCCC)CCN(CCCCCCCCC)CCCCCCCCC)C1 (centres unmarked) [Compound 73, 2-((2-(Dinonylamino)ethyl)(nonyl)amino)-1-(3-(2-(dinonylamino)ethyl)piperidin-1-yl)ethan-1-one] | 98.85 | 1.41E+8 | 0.25 | 84.3 | –
7 | CCCCCCCCCN(CCCC(=O)OCCCCC)CCC1CCCN(C(=O)CN(CCCCCCCCC)CCN(CCCCCCCCC)CCCCCCCCC)C1 (centres unmarked) [Compound 80, Pentyl 4-((2-(1-(N-(2-(dinonylamino)ethyl)-N-nonylglycyl)piperidin-3-yl)ethyl)(nonyl)amino)butanoate] | 98.93 | 6.24E+7 | 0.2 | 65.8 | –
8 | CCCCCCCCCN(CCCC(=O)OCCCCC)CCC1CCN(C(=O)CN(CCCCCCCCC)CCN(CCCCCCCCC)CCCCCCCCC)C1 (centres unmarked) [Compound 81, Pentyl 4-((2-(1-(N-(2-(dinonylamino)ethyl)-N-nonylglycyl)pyrrolidin-3-yl)ethyl)(nonyl)amino)butanoate] | 99.27 | 1.08E+8 | 0.17 | 65.3 | –
9 | CCCCCCCCCN(CCCCCCCCC)CCN(CCCCCCCCC)CC(=O)N1CCC(CN(CCCCCCCCC)CCCC(=O)OCCCCC)C1 (centres unmarked) [Compound 82, Pentyl 4-(((1-(N-(2-(dinonylamino)ethyl)-N-nonylglycyl)pyrrolidin-3-yl)methyl)(nonyl)amino)butanoate] | 99.23 | 1.29E+8 | 0.24 | 76.1 | –
10 | CCCCCCCCCN(CCCC(=O)OCCCCC)CCC1CCN(C(=O)CN(CCCCCCCCC)CCN(CCCCCCCCC)CCCCCCCCC)CC1 [Compound 83, Pentyl 4-((2-(1-(N-(2-(dinonylamino)ethyl)-N-nonylglycyl)piperidin-4-yl)ethyl)(nonyl)amino)butanoate] | 99.12 | 5.21E+7 | 0.22 | 73.2 | –
11 | CCCCCCCCCN(CCCC(=O)OCCCCC)CCCC1CCN(C(=O)CCN(CCCCCCCCC)CCN(CCCCCCCCC)CCCCCCCCC)CC1 [Compound 84, Pentyl 4-((3-(1-(3-((2-(dinonylamino)ethyl)(nonyl)amino)propanoyl)piperidin-4-yl)propyl)(nonyl)amino)butanoate] | 98.48 | 5.10E+7 | 0.19 | 68.6 | –
12 | CCCCCCCCCN(CCCCCCCCC)CCCC1CCN(C(=O)CCN(CCCCCCCCC)CCN(CCCCCCCCC)CCCCCCCCC)CC1 [Compound 85, 3-((2-(Dinonylamino)ethyl)(nonyl)amino)-1-(4-(3-(dinonylamino)propyl)piperidin-1-yl)propan-1-one] | 99.18 | 1.27E+8 | 0.24 | 69.9 | –
13 | CCCCCCCCCN(CCCOC(=O)CCCCC)CCC(=O)N1CCN(C(=O)CCN(CCCCCCCCC)CCN(CCCCCCCCC)CCCCCCCCC)CC1 [Compound 86, 3-((3-(4-(3-((2-(Dinonylamino)ethyl)(nonyl)amino)propanoyl)piperazin-1-yl)-3-oxopropyl)(nonyl)amino)propyl Hexanoate] | 97.42 | 1.75E+7 | 0.14 | 53.6 | –
14 | CCCCCCCCCN(CCCOC(=O)CCCCC)CCCC1CCN(C(=O)CCN(CCCCCCCCC)CCN(CCCCCCCCC)CCCCCCCCC)CC1 [Compound 87, 3-((3-(1-(3-((2-(Dinonylamino)ethyl)(nonyl)amino)propanoyl)piperidin-4-yl)propyl)(nonyl)amino)propyl Hexanoate] | 98.67 | 2.86E+7 | 0.21 | 80.9 | –
